Assay results as given in patent US20110118298A1, “COMPOSITIONS, KITS, AND METHODS FOR IDENTIFICATION, ASSESSMENT, PREVENTION, AND THERAPY OF CANCER” (INFINITY PHARMACEUTICALS, INC., priority 2009, published 2011).
“Also recorded” adds a separate entry of the source.

Tested on: Colo320HSR, NCI-H716, SNU-C1, C2BBe1 xenografts
Assay: Colorectal xenografts wild type for both KRAS and BRAF
Format: in vivo, Nu/Nu mice
Settings: 100 mg/kg three times weekly, oral
Protocol: Preparation of a suspension of this solid amorphous dispersion was made by levigating the solid with glycerol with a spatula followed by homogenization in a 1% hydroxyethylcellulose solution in a high speed homogenizer for 10 minutes to provide in vehicle (1% hydroxyethylcellulose, 5% glycerol). The suspension was used to administer 17-AG in the below described in vivo experiments.
In the third set of studies, the Colo320HSR (FIG. 22A), NC1—H716 (FIG. 22B), SNU-C1 (FIG. 22C) and C2BBe1 (FIG. 22D) cell lines were employed all of which are wild type for both KRAS and BRAF. 5-6 week old Nu/Nu mice were implanted subcutaneously with 10×10^6 cells for each cell line used and dosing by oral gavage commenced after tumors had reached approximately 150-200 mm^3 on a dosing schedule of three times weekly (M, W, F) with a suspension of 50% 17-AG in HPMC-AS-HG dispersion in vehicle (1% hydroxyethylcellulose, 5% glycerol) at a dose level of 100 mg/kg 17-AG (IPI-493) as compared to vehicle control.

## CO[C@H]1/C=C\C=C(/C)C(=O)NC2=CC(=O)C(N)=C(C[C@@H](C)C[C@H](OC)[C@H](O)[C@@H](C)/C=C(\C)[C@@H]1OC(N)=O)C2=O [IPI-493, 17-AG]
  effect on tumor growth in wild-type kRAS/bRAF models: no detactable effect on TGI; also recorded: did not lead to tumor growth inhibition
Listed as 17-AG
  effect on tumor growth in wild-type kRAS/bRAF models: no detectable difference in tumor volume
